Experiment: Effect of concurrent oral dexamethasone administration on DTC 101 toxicity

## C[C@@H]1C[C@H]2[C@@H]3CCC4=CC(=O)C=C[C@]4(C)[C@@]3(F)[C@@H](O)C[C@]2(C)[C@@]1(O)C(=O)CO [dexamethasone]
oral, 2 to 4 mg twice per day
  effect on toxicities associated with DTC 101: major effect on blunting toxicities associated with DTC 101
Three patients, same dose of DTC 101 with and without dexamethasone
  DTC 101 toxicity with concurrent oral dexamethasone: almost completely suppressed
